Measured values as given in patent publication US20100166806A1, “Combination therapy comprising the use of protein kinase C modulators and Histone Deacetylase inhibitors for treating HIV-1 latency” (Aphios Corporation, priority 2008, published 2010).
“Also recorded” adds a separate entry of the source.

Assays:
[1] = system: bryostatin-1-induced HIV-1 reactivation in Jurkat-LAT-GFP cells; test: Effect of PKC/MEK inhibitors on bryostatin-1-induced GFP expression in Jurkat-LAT-GFP cells; type: cell-based; details: Jurkat-LAT-GFP cells preincubated with inhibitor, then bryostatin-1 (10 nM) 6 h
Description: The primary interest in Bryostatins has been initiated by recognition of the potent antiproliferative effects against various tumour cells. Such effects have been related to the ability of Bryo-1 to modulate protein kinase C (PKC) activity by activating or degrading certain isoforms of PKC. Since PKC activation mediates different signal pathways that in turn activate the transcription of latent HIV-1, we preincubated Jurkat-LAT-GFP cells with medium or the chemical inhibitors Gö6976 (classical PKCs inhibitor), Gö66850 (classical and novel PKCs inhibitor), Gö6983 (pan-PKC inhibitor), rottlerin (PKCδ inhibitor) and PD98059 (MEK inhibitor) at effective concentrations.
Jurkat LAT-GFP cells were pretreated with the indicated inhibitors for 30 min at the indicated dose, and then stimulated with bryostatin-1 (10 nM) for 6 h. The percentage of GFP+ cells was measured by flow cytometry. Results, shown in FIG. 9, are represented as percentage of activation compared to cells treated with agonists in the absence of the chemical inhibitors (100% activation). The chemical inhibitors Gö6976 (classical PKCs inhibitor), Gö6850 (classical and novel PKCs inhibitor), Gö6983 (pan-PKC inhibitor), rottlerin (PKCδ inhibitor) and PD98059 (MEK inhibitor) were used at the indicated concentrations.

[2] = system: HIV-1 latency in Jurkat-LAT-GFP cells; test: HIV-1 reactivation in Jurkat-LAT-GFP cells (percentage of GFP+ cells by flow cytometry); type: cell-based; details: for HIV-1 reactivation: 10 nM
[3] = system: CD4; test: Cell surface expression of CD4 on MT-2 cells by flow cytometry; type: cell-based, human
Description: (§1) This effect, shown in FIG. 12, is mediated though a PKC-dependent pathway and is not affected by the presence of VPA. MT-2 cells were treated with 10 nM of bryostatin in the presence or absence of either the PKC inhibitor Gö6850 or the HDAC inhibitor VPA for 24 h and the expression of CD4 and CXCR4 analysed. Cell surface expression of CD4 and CXCR4 antigens were measured by direct fluorescence using specific mAbs and analyzed by flow cytometry in an EPIC XL flow cytometer (Beckman-Coulter Inc. CA, USA). The anti-CXCR4 (clone 12G5, PE-labeled) was from BD Biosciences Pharmigen (San Diego, Calif., USA). The mAb anti-CD4 (clone 6D10, FITC-labelled) was from ImmunoTools (Friesoythe, Del.). Dual-Color Reagent Mouse IgG1/FITC+ Mouse IgG1/PE from DAKO (clone DAK-GO1 directed towards Aspergillus niger glucose oxidase) was used as negative control.

[4] = system: CXCR4; test: Cell surface expression of CXCR4 on MT-2 cells by flow cytometry; type: cell-based, human
Description: as §1

[5] = system: HIV-1 latent infected cells; details: three of four patients; VPA 500-750 mg twice a day; cited from earlier work
[6] = system: IκBα; test: Western blot of IκBα phosphorylation and degradation (NF-κB pathway) in Jurkat-LAT-GFP cells; type: cell-based
Description: (§2) Jurkat-LAT-GFP cells were stimulated with increasing concentrations of bryostatin-1 and the phosphorylation and degradation of the NF-κB inhibitor Iκbα, and the phosphorylation (activation) of the MAPKs, ERK and JNK, were investigated by western blots using specific mAbs.
(§3) Jurkat LAT-GFP cells were incubated with either bryostatin-1 (1, 10, 25, 50 and 100 nM) or with prostratin (0.01, 0.05, 0.1, 0.5, 1 and 10 μM) for 10 min. IκBα phosphorylation and degradation, the phosphorylation status of MAPKs ERK 1+2 and JNK 1+2, and the steady state levels of total ERK 1+2 were analyzed using specific antibodies by western blots. Control and treated cells were washed with PBS and proteins extracted in 50 μl of lysis buffer (20 mM Hepes pH 8.0, 10 mM KCl, 0.15 mM EGTA, 0.15 mM EDTA, 0.5 mM Na3VO4, 5 mM NaFl, 1 mM DTT, leupeptin 1 μg/ml, pepstatin 0.5 μg/ml, aprotinin 0.5 μg/ml, and 1 mM PMSF) containing 0.5% NP-40. Protein concentration was determined by the Bradford assay (Bio-Rad, Richmond, Calif., USA) and thirty μg of proteins were boiled in Laemmli buffer and electrophoresed in 10% SDS/polyacrylamide gels. Separated proteins were transferred to nitrocellulose membranes (0.5 A at 100 V; 4° C.) for 1 h. […]

[7] = system: MAPKs ERK1+2 and JNK1+2; test: Western blot of phosphorylation (activation) of MAPKs ERK and JNK in Jurkat-LAT-GFP cells; type: cell-based
Description: as §2, §3

[8] = system: HIVIIIB variant of HIV-1; test: Virus-induced cytotoxicity assay (HIV-1-induced cell death in CEM-SS cells, XTT); type: cell-based
Description: The human T-lymphoblastic cell line CEM-SS was used as the target cell line and virus infections were performed using the HIVIIIB variant of HIV-1 (FIG. 13). Briefly, increasing concentrations of bryostatins (1, 2, 3 and AB) or 3TC (a known inhibitor of HIV RT) were incubated with 5,000 CEM-SS cells and HIVIIIB in a final volume of 200 μl/well at 37° C. for 6 days. After 6 days, 50 μl/well of XTT dye was added and the plate incubated for 4 hours at 37° C. The plate was then read at 450 nm with a reference at 630 nm and the percent CPE, percent inhibition, percent toxicity, effective concentration 50 (EC50), cytotoxic concentration (CC50) and the selective index (CC50/EC50) were calculated. Plates contained the following controls: media, cellular and viral.

[9] = cited from earlier work
[10] = MT-2 cells, 10 nM bryostatin, 24 h
[11] = increasing concentrations of bryostatin-1

For CN(C)CCCn1cc(C2=C(c3c[nH]c4ccccc34)C(=O)NC2=O)c2ccccc21 [Gö6850], which “Inhibition of GFP expression induced by Bryostatin-1” value (“Inhibition of GFP expression induced” below) [1] is on record?
Its value is “strongly inhibited”.

With Cn1c2ccccc2c2c3c(c4c5ccccc5n(CCC#N)c4c21)CNC3=O [Gö6976] as the molecule, how does the “Inhibition of GFP expression induced” value [1] read?
Its value is “strongly inhibited”.

Which “Inhibition of GFP expression induced” value [1] does the source give for COc1ccc2c(c1)c(C1=C(c3c[nH]c4ccccc34)C(=O)NC1=O)cn2CCCN(C)C [Gö6983] here?
The value was “strongly inhibited”.

Which “Inhibition of GFP expression induced” value [1] does the source give for COc1cccc(-c2cc(=O)c3ccccc3o2)c1N [PD98059] here?
Its value is “partially inhibited”.

With CC(/C=C/C(=O)NO)=C\[C@@H](C)C(=O)c1ccc(N(C)C)cc1 [TSA, trichostatin A, reference compound] as the molecule, how does the “Synergy with bryostatin-1 to antagonise HIV-1 latency” value [2] read?
The value was “synergises”.

Which “Synergy with bryostatin-1 to antagonise HIV-1 latency” value [2] does the source give for CCCC(CCC)C(=O)O [Valproic acid, valproic acid, reference compound] here?
The value was “synergises”.

What about the “Effect of VPA on bryostatin-induced CD4 downregulation” value [3, 10] of the same molecule?
The value was “not affected”.

What about the “Effect of VPA on bryostatin-induced CXCR4 downregulation” value [4, 10] of the same molecule?
Its value is “not affected”.

And the “Depletion of HIV-1 latent infected cells in patients” value [5]?
The value was “significant depletion”.

For CCC/C=C/C=C/C(=O)O[C@H]1/C(=C/C(=O)OC)C[C@H]2C[C@H]([C@@H](C)O)OC(=O)C[C@H](O)C[C@@H]3C[C@H](OC(C)=O)C(C)(C)[C@](O)(C[C@@H]4C/C(=C/C(=O)OC)C[C@H](/C=C/C(C)(C)[C@]1(O)O2)O4)O3 [bryostatin-1], which “HIV-1 reactivation in the presence of valproic acid” value [2] is on record?
Its value is “can induce HIV-1 reactivation”.

And the HIV-1 reactivation ([2]; Jurkat-LAT-GFP cells)?
Its HIV-1 reactivation is “strongly induce HIV-1 reactivation; also recorded: fully reactivates HIV-1 latency”.

And the “Potency to antagonize HIV-1 latency relative to prostratin” value ([2]; Jurkat-LAT-GFP cells, 6 h, versus prostratin)?
The value was 100 Fold.

And the “HIV-1 reactivation (GFP+ cells)” value ([2]; bryostatin-1 100 nM, Jurkat-LAT-GFP cells)?
The value was 87 % of GFP+ cells.

What about the “Reduction of the bryostatin-1 concentration allowed by HDACs inhibitors” value ([2]; in combination with HDACs inhibitors) of the same molecule?
The value was “at least one order of magnitude”.

What about the “IκBα phosphorylation and degradation” value ([6]; 10 nM) of the same molecule?
The value was “does not induce”.

And the “Phosphorylation and degradation of IκBα” value [6, 11]?
The value was “induced phosphorylation and degradation”.

And the JNK activation ([7]; 10 nM)?
The JNK activation was “does not induce”.

And the “Activation of the MAPKs ERK1+2 and JNK1+2” value [7, 11]?
Its value is “in a concentration dependent manner”.

And the “Expression of HIV-1 receptor CD4” value ([3]; 10 nM)?
The value was “downregulates”.

And the “Expression of HIV-1 receptor CXCR4” value ([4]; 10 nM)?
The value was “downregulates”.

What about the EC50 [8] of the same molecule?
The EC50 was 26 nM.

What about the “Tissue accumulation after i.v. injection” value [9] of the same molecule?
The value was “accumulated in several tissues including lymph nodes and the gastrointestinal tract”.

For CCC/C=C/C=C/C(=O)O[C@H]1[C@H]2C=C3C[C@H]([C@@H](C)O)OC(=O)C[C@H](O)C[C@@H]4C[C@H](OC(C)=O)C(C)(C)[C@](O)(C[C@@H]5C/C(=C\C(=O)OC)C[C@H](/C=C/C(C)(C)[C@]1(OC(=O)C2)O3)O5)O4 [bryostatin-3], which HIV-1 reactivation ([2]; Jurkat-LAT-GFP cells) is on record?
The HIV-1 reactivation was “strongly induce HIV-1 reactivation”.

With CC(=O)c1c(O)c(C)c(O)c(Cc2c(O)c3c(c(C(=O)/C=C/c4ccccc4)c2O)OC(C)(C)C=C3)c1O [rottlerin] as the molecule, how does the “Inhibition of GFP expression induced” value [1] read?
Its value is “did not affect”.

For bryostatin-2, which HIV-1 reactivation ([2]; Jurkat-LAT-GFP cells) is on record?
The HIV-1 reactivation was “strongly induce HIV-1 reactivation”.
